{"source": "patent US6914045B2", "about": "“Glycopeptide antibiotics” (Wyeth Holdings Corporation, priority 2001, dated 2005)", "assay_in_all_cases": "in vitro antibacterial evaluation, MIC by broth dilution", "assay_type_in_all_cases": "cell-based", "key": {"Enterococcus sp.": {"system": "Enterococcus sp.", "details": "broth dilution, 18 hours at 35° C.", "how_it_was_run": "(§1)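 Following National Committee for Clinical Laboratory Standards recommendations (M7-A2), susceptibility was measured by dilution in Muller-Hinton II […]. Bacteria were seeded at 5×10^5 CFU/mL against compound concentrations from 64 down to 0.06 μg/mL.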"}, "Escherichia coli": {"system": "Escherichia coli", "how_it_was_run": "as §1"}, "Staphylococcus sp.": {"system": "Staphylococcus sp.", "details": "broth dilution, 18 hours at 35° C.; for MIC Staphylococcus aureus (GC 1131): strain GC 1131", "how_it_was_run": "as §1"}, "Streptococcus sp.": {"system": "Streptococcus sp.", "details": "broth dilution, 18 hours at 35° C.", "how_it_was_run": "as §1"}}, "data": [{"compound": "COc1cccc(C2OC3C(OC4C(CO)OC(Oc5ccc(CC6NC(=O)C(C(C)c7ccccc7)NC(=O)CNC(=O)C(CO)NC(=O)C(C(O)C7CNC(=N)N7C7OC(CO)C(O)C(O)C7O)NC(=O)C(C(O)C7CNC(=N)N7)NC6=O)cc5)C(O)C4O)OC(CO)C(O)C3O2)c1", "note": "(single isomer, unassigned) [Example 137b, Cyclo[glycyl-β-methylphenylalanyl-O-[4-O-[2,3-O-(3-methoxybenzylidene)hexopyranosyl]-hexopyranosyl]tyrosyl-3-(2-iminoimidazolidin-4-yl)seryl-3-(3-hexopyranosyl-2-iminoimidazolidin-4-yl)serylseryl]]", "values": [{"measurement": "MIC Enterococcus avium (GC 4558)", "setting": "Enterococcus sp.; Enterococcus avium (GC 4558)", "result": 32, "unit": "µg/mL"}, {"measurement": "MIC Enterococcus faecalis (ATCC 29212)", "setting": "Enterococcus sp.; Enterococcus faecalis (ATCC 29212)", "result": 32, "unit": "µg/mL"}, {"measurement": "MIC Enterococcus faecalis (GC 2242)", "setting": "Enterococcus sp.; Enterococcus faecalis (GC 2242)", "result": 32, "unit": "µg/mL"}, {"measurement": "MIC Enterococcus faecalis (GC 2691)", "setting": "Enterococcus sp.; Enterococcus faecalis (GC 2691)", "result": 32, "unit": "µg/mL"}, {"measurement": "MIC Enterococcus faecalis (GC 3059)", "setting": "Enterococcus sp.; Enterococcus faecalis (GC 3059)", "result": 64, "unit": "µg/mL"}, {"measurement": "MIC Enterococcus faecalis (GC 4552)", "setting": "Enterococcus sp.; Enterococcus faecalis (GC 4552)", "result": 32, "unit": "µg/mL"}, {"measurement": "MIC Enterococcus faecalis (GC 4553)", "setting": "Enterococcus sp.; Enterococcus faecalis (GC 4553)", "result": 32, "unit": "µg/mL"}, {"measurement": "MIC Enterococcus faecalis (GC 4554)", "setting": "Enterococcus sp.; Enterococcus faecalis (GC 4554)", "result": 64, "unit": "µg/mL"}, {"measurement": "MIC Enterococcus faecalis (GC 6189)", "setting": "Enterococcus sp.; Enterococcus faecalis (GC 6189)", "result": 32, "unit": "µg/mL"}, {"measurement": "MIC Enterococcus faecium (GC 2243)", "setting": "Enterococcus sp.; Enterococcus faecium (GC 2243)", "result": 64, "unit": "µg/mL"}, {"measurement": "MIC Enterococcus faecium (GC 4556)", "setting": "Enterococcus sp.; Enterococcus faecium (GC 4556)", "result": 32, "unit": "µg/mL"}, {"measurement": "MIC Enterococcus faecium (GC 4557)", "setting": "Enterococcus sp.; Enterococcus faecium (GC 4557)", "result": 8, "unit": "µg/mL"}, {"measurement": "MIC Enterococcus faecalis (ATCC 29212)", "setting": "Enterococcus sp.; strain ATCC 29212", "result": 32, "unit": "µg/mL"}, {"measurement": "MIC Enterococcus faecalis (GC 2242)", "setting": "Enterococcus sp.; strain GC 2242", "result": 32, "unit": "µg/mL"}, {"measurement": "MIC Enterococcus faecium (GC 2243)", "setting": "Enterococcus sp.; strain GC 2243", "result": 64, "unit": "µg/mL"}, {"measurement": "MIC Enterococcus faecalis (GC 2691)", "setting": "Enterococcus sp.; strain GC 2691", "result": 32, "unit": "µg/mL"}, {"measurement": "MIC Enterococcus faecalis (GC 3059)", "setting": "Enterococcus sp.; strain GC 3059", "result": 64, "unit": "µg/mL"}, {"measurement": "MIC Enterococcus faecalis (GC 4552)", "setting": "Enterococcus sp.; strain GC 4552", "result": 32, "unit": "µg/mL"}, {"measurement": "MIC Enterococcus faecalis (GC 4553)", "setting": "Enterococcus sp.; strain GC 4553", "result": 32, "unit": "µg/mL"}, {"measurement": "MIC Enterococcus faecalis (GC 4554)", "setting": "Enterococcus sp.; strain GC 4554", "result": 64, "unit": "µg/mL"}, {"measurement": "MIC Enterococcus faecium (GC 4556)", "setting": "Enterococcus sp.; strain GC 4556", "result": 32, "unit": "µg/mL"}, {"measurement": "MIC Enterococcus faecium (GC 4557)", "setting": "Enterococcus sp.; strain GC 4557", "result": 8, "unit": "µg/mL"}, {"measurement": "MIC Enterococcus avium (GC 4558)", "setting": "Enterococcus sp.; strain GC 4558", "result": 32, "unit": "µg/mL"}, {"measurement": "MIC Enterococcus faecalis (GC 6189)", "setting": "Enterococcus sp.; strain GC 6189", "result": 32, "unit": "µg/mL"}, {"measurement": "MIC Escherichia coli (ATCC 25922)", "setting": "Escherichia coli; strain ATCC 25922, 18 hours at 35° C.", "result": ">64", "unit": "µg/mL"}, {"measurement": "MIC Escherichia coli (GC 4559)", "setting": "Escherichia coli; strain GC 4559, 18 hours at 35° C.", "result": ">64", "unit": "µg/mL"}, {"measurement": "MIC Escherichia coli (GC 4560)", "setting": "Escherichia coli; strain GC 4560, 18 hours at 35° C.", "result": 4, "unit": "µg/mL"}, {"measurement": "MIC Staphylococcus aureus (GC 1131)", "setting": "Staphylococcus sp.; inoculum 5×10^5 CFU/mL", "result": 16, "unit": "µg/mL"}, {"measurement": "MIC Staphylococcus aureus (ATCC 29213)", "setting": "Staphylococcus sp.; strain ATCC 29213", "result": 16, "unit": "µg/mL"}, {"measurement": "MIC Staphylococcus aureus (GC 1131)", "setting": "Staphylococcus sp.", "result": 16, "unit": "µg/mL"}, {"measurement": "MIC Staphylococcus aureus (GC 3051)", "setting": "Staphylococcus sp.; strain GC 3051", "result": 16, "unit": "µg/mL"}, {"measurement": "MIC Staphylococcus aureus (GC 3053)", "setting": "Staphylococcus sp.; strain GC 3053", "result": 16, "unit": "µg/mL"}, {"measurement": "MIC Staphylococcus aureus (GC 4541)", "setting": "Staphylococcus sp.; strain GC 4541", "result": 8, "unit": "µg/mL"}, {"measurement": "MIC Staphylococcus aureus (GC 4542)", "setting": "Staphylococcus sp.; strain GC 4542", "result": 16, "unit": "µg/mL"}, {"measurement": "MIC Staphylococcus aureus-SMITH (GC 4543)", "setting": "Staphylococcus sp.; strain GC 4543", "result": 8, "unit": "µg/mL"}, {"measurement": "MIC Staphylococcus aureus (GC 4544)", "setting": "Staphylococcus sp.; strain GC 4544", "result": 16, "unit": "µg/mL"}, {"measurement": "MIC Staphylococcus aureus (GC 4545)", "setting": "Staphylococcus sp.; strain GC 4545", "result": 16, "unit": "µg/mL"}, {"measurement": "MIC Staphylococcus haemolyticus (GC 4546)", "setting": "Staphylococcus sp.; strain GC 4546", "result": 8, "unit": "µg/mL"}, {"measurement": "MIC Coagulase Negative Staphylococcus (GC 4547)", "setting": "Staphylococcus sp.; strain GC 4547", "result": 8, "unit": "µg/mL"}, {"measurement": "MIC Coagulase Negative Staphylococcus (GC 4548)", "setting": "Staphylococcus sp.; strain GC 4548", "result": 4, "unit": "µg/mL"}, {"measurement": "MIC Coagulase Negative Staphylococcus (GC 4549)", "setting": "Staphylococcus sp.; strain GC 4549", "result": 8, "unit": "µg/mL"}, {"measurement": "MIC Coagulase Negative Staphylococcus (GC 4551)", "setting": "Staphylococcus sp.; strain GC 4551", "result": 8, "unit": "µg/mL"}, {"measurement": "MIC Coagulase Negative Staphylococcus (GC 6257)", "setting": "Staphylococcus sp.; strain GC 6257", "result": 4, "unit": "µg/mL"}, {"measurement": "MIC Staphylococcus aureus-SMITH (GC 4543)", "setting": "Staphylococcus sp.; strain SMITH GC 4543", "result": 8, "unit": "µg/mL"}, {"measurement": "MIC Streptococcus agalactiae (GC 4564)", "setting": "Streptococcus sp.; Streptococcus agalactiae (GC 4564)", "result": 4, "unit": "µg/mL"}, {"measurement": "MIC Streptococcus pneumoniae (ATCC 6301)", "setting": "Streptococcus sp.; Streptococcus pneumoniae (ATCC 6301)", "result": 2, "unit": "µg/mL"}, {"measurement": "MIC Streptococcus pneumoniae (GC 1894)", "setting": "Streptococcus sp.; Streptococcus pneumoniae (GC 1894)", "result": 1, "unit": "µg/mL"}, {"measurement": "MIC Streptococcus pneumoniae (GC 4565)", "setting": "Streptococcus sp.; Streptococcus pneumoniae (GC 4565)", "result": 2, "unit": "µg/mL"}, {"measurement": "MIC Streptococcus pyogenes (GC 4563)", "setting": "Streptococcus sp.; Streptococcus pyogenes (GC 4563)", "result": 4, "unit": "µg/mL"}, {"measurement": "MIC Streptococcus pneumoniae (ATCC 6301)", "setting": "Streptococcus sp.; strain ATCC 6301", "result": 2, "unit": "µg/mL"}, {"measurement": "MIC Streptococcus pneumoniae (GC 1894)", "setting": "Streptococcus sp.; strain GC 1894", "result": 1, "unit": "µg/mL"}, {"measurement": "MIC Streptococcus pyogenes (GC 4563)", "setting": "Streptococcus sp.; strain GC 4563", "result": 4, "unit": "µg/mL"}, {"measurement": "MIC Streptococcus agalactiae (GC 4564)", "setting": "Streptococcus sp.; strain GC 4564", "result": 4, "unit": "µg/mL"}, {"measurement": "MIC Streptococcus pneumoniae (GC 4565)", "setting": "Streptococcus sp.; strain GC 4565", "result": 2, "unit": "µg/mL"}]}]}
